Patent publication US20220390471A1, “INTEGRATED DRUG DISCOVERY PLATFORM FOR PROTEIN MISFOLDING DISORDERS ASSOCIATED WITH METABOLITE ACCUMULATION” (Ramot at Tel-Aviv University Ltd., priority 2021, published 2022)
Where two headings read alike, the source gives them in different places. Blank lines part the entries; values can stand above or below the compound they belong to.

Legend:
[1] = system: Hcy fibrils; assay: ThT binding assay, inhibition of Hcy self-assembly by polyphenols; format: biochemical; conditions: 1 mM EGCG or 0.1 mM TA added at timepoint zero; Hcy in PBS; emission 480 nm, excitation 440 nm
Experimental: Hcy was dissolved at 90° C. in PBS to a final concentration of 10, 5 and 2 mg/mL and maintained at 90° C. until the beginning of the measurement. Samples containing polyphenols were immediately mixed with the inhibitors. EGCG or TA (final concentration of 1 mM and 0.1 mM, respectively). As a control, Hcy was diluted with PBS alone to the same final concentrations. ThT in PBS was added to a final concentration of 20 μM for 5 and 10 mg/ml Hcy or 40 μM for 2 mg/ml Hcy. Next, the solutions were plated in a black 96-well, clear, and flat bottom microplate (Greiner) and self-assembly kinetics were recorded over time at room temperature (uncontrolled gradual cooling of the solutions) with short shaking before each read. ThT emission data at 480 nm (excitation at 440 nm), were measured using a Tecan™ SPARK 10 M plate reader, gain of 100 for 2 mg/ml, and using a Tecan™ Infinite 200 PRO plate reader, gain of 90 for 5 and 10 mg/ml.

[2] = system: Hcy fibrils; assay: TEM of pre-formed solutions of Hcy with polyphenols; conditions: Hcy 2 mg/mL + 1 mM EGCG or 0.1 mM TA
Experimental: Hcy was dissolved at 90° C. in PBS at various concentrations followed by gradual cooling of the solution. Where indicated, EGCG or TA (final concentration of 1 mM and 0.1 mM, respectively) were added before gradual cooling. Subsequently, 10 μL samples were placed on 400-mesh copper grids. After 2 min, excess fluids were removed. Samples were viewed using a JEOL 1200EX electron microscope operating at 80 kV.

[3] = system: SH-SY5Y cells; assay: MTT cell viability assay, SH-SY5Y cells; format: cell-based, human; conditions: for Cell viability with inhibitor-containing Hcy solution compared to Hcy alone (MTT): Hcy 2 mg/mL with EGCG 0.1 mM or TA 0.01 mM
Experimental: SH-SY5Y cells (ATCC CRL-2266) or HEK293 cells (ATCC® CRL-1573) were cultured (2×10^5 cells/mL) in DMEM/Nutrient Mixture F12 (Ham's; 1:1) supplemented with 10% fetal bovine serum (FBS) in 96-well tissue microplates (100 μL per well) and allowed to adhere overnight at 37° C. Half of each plate was plated with cells, with the other half later serving as a control containing solutions alone. The treatment solutions were prepared as follows: Hcy or methionine were dissolved at 90° C. and at various concentrations in cell media without FBS, followed by gradual cooling of the solutions. For solutions containing polyphenols, Hcy (final concentration of 2 mg/mL) was similarly dissolved in cell media and mixed with EGCG or TA (final concentration of 0.1 mM and 0.01 mM, respectively, stock solution dissolved in cell medium) before gradual cooling. The medium was replaced and cells were treated with the solutions (100 μL per well), followed by overnight incubation at 37° C. Control cells were incubated with medium that was treated in the same manner (without Hcy). Controls of media supplemented with the inhibitors, without Hcy, were examined as well. Cell viability was evaluated using the 3-(4,5-dimethylthiazolyl-2)-2,5-diphenyltetrazolium bromide (MTT) assay. Briefly, 10 μL of 5 mg/mL MTT dissolved in PBS was added to each well. After a 4 hours incubation at 37° C. 100 μL of extraction buffer […] dissolved in a mixture of 50% DMF and 50% DDW (pH 4.7)] was added to each well, and the plates were further incubated at 37° C. for 30 min. Finally, color intensity was measured using an ELISA reader at 570 nm. Blank measurements of the solutions without cells were respectively subtracted. The data points are presented as mean±SD. For inhibitors and methionine controls, two-tailed Student's t test was performed when two groups were compared.

[4] = system: HEK293 cells; assay: MTT cell viability assay, HEK293 cells; format: cell-based; conditions: HEK293 non-neuronal cell line, 24 hours
Experimental: SH-SY5Y cells (ATCC CRL-2266) or HEK293 cells (ATCC® CRL-1573) were cultured (2×10^5 cells/mL) in DMEM/Nutrient Mixture F12 (Ham's; 1:1) supplemented with 10% fetal bovine serum (FBS) in 96-well tissue microplates (100 μL per well) and allowed to adhere overnight at 37° C. Half of each plate was plated with cells, with the other half later serving as a control containing solutions alone. […] For solutions containing polyphenols, Hcy (final concentration of 2 mg/mL) was similarly dissolved in cell media and mixed with EGCG or TA (final concentration of 0.1 mM and 0.01 mM, respectively, stock solution dissolved in cell medium) before gradual cooling. The medium was replaced and cells were treated with the solutions (100 μL per well), followed by overnight incubation at 37° C. Control cells were incubated with medium that was treated in the same manner (without Hcy). Controls of media supplemented with the inhibitors, without Hcy, were examined as well. Cell viability was evaluated using the 3-(4,5-dimethylthiazolyl-2)-2,5-diphenyltetrazolium bromide (MTT) assay. Briefly, 10 μL of 5 mg/mL MTT dissolved in PBS was added to each well. After a 4 hours incubation at 37° C. […] Finally, color intensity was measured using an ELISA reader at 570 nm. […]

[5] = system: SH-SY5Y cells; assay: Annexin V and propidium iodide apoptosis assay (flow cytometry); format: cell-based, human
Experimental: SH-SY5Y cells were cultured at 2×10^5 cells/mL in 24-well plates in DMEM/Nutrient Mixture F12 (Ham's; 1:1) supplemented with 10% FBS and were allowed to adhere overnight at 37° C. The treatment solutions containing Hcy and methionine were prepared as described above for the MTT assay. Cells were treated with the solutions followed by overnight incubation at 37° C. Control cells were incubated with medium that was treated in the same manner without Hcy. The apoptotic effect was evaluated using the MEBCYTO Apoptosis kit (MBL International), according to the manufacturer's instructions. Briefly, the adherent cells were trypsinized, detached and combined with floating cells from the incubated growth medium. Cells were then centrifuged and washed once with PBS and once with binding buffer. Cells were subsequently incubated with annexin V-FITC and PI for 15 min in the dark, resuspended in 200 μL binding buffer and analyzed by flow cytometry using a single laser-emitting excitation light at 488 nm. Data from at least 10^4 cells were acquired using the BD FACSort and the CellQuest software (BD Biosciences). Analysis was performed using the FlowJo software (TreeStar, version 14).

[6] = system: SH-SY5Y cells; assay: ProteoStat staining, confocal microscopy of treated SH-SY5Y cells; format: cell-based, human; conditions: Hcy assemblies 2 mg/mL, 4 hours
Experimental: SH-SY5Y cells: 2×10^5 cells/mL were cultured in DMEM/Nutrient Mixture F12 (Ham's; 1:1) supplemented with 10% FBS in 24-well plate on glass slides coated with 0.01% Poly-L-Lysine. When reaching ˜70-80% confluency, cells were treated with Hcy (2 mg/mL dissolved at 90° C. in cell media without FBS, followed by gradual cooling of the solution). After 4 hours of incubation, the cells were immediately supplemented with ProtesoStat dye diluted 1:250 in ProteoStat assay buffer followed by incubation for 15 min at room temperature protected from light. Cells were imaged using Leica TCS SP8 laser confocal microscope with ×63 1.4 NA or ×100 1.4 NA oil objectives. An argon laser with 488 excitation line was used for ProteoStat (emission wavelength, 500-600 nm).

[7] = system: cys4Δ yeast strain; format: cell-based, Saccharomyces cerevisiae
Experimental: The cys4 gene was disrupted in wild-type (WT) yeast strain (BY4741) via homologous recombination using PCR fragments amplified from the plasmid pFA6a-KanMX6 as a template with primer DL154:
(§1) WT and cys4Δ strains were grown overnight at 30° C. Unless otherwise specified, the strains were grown on synthetic defined medium (SD) containing 20 mg/L L-methionine, 20 mg/L L-histidine monohydrochloride monohydrate, 20 mg/L uracil and 30 mg/L L-leucine. Cysteine was added to a final concentration of 13 mg/L. Hcy was added at the indicated concentrations.
For spotting assays, strains were diluted to 6.25*10^7 cells/mL and then 5-fold serially diluted and spotted on the indicated plates. Plates were incubated at 30° C. for 2-3 days.
(§2) For OD600 measurements, strains were diluted to OD600 0.01. 200 μL of cells were platted on 96 wells plates and incubated at 30° C. for 30 hours with continuous shaking. OD600 was measured using Tecan™ SPARK 10M plate reader.
(§3) The percentage of growth analysis (FIG. 10F) represents the OD600 levels following 27 hours of growth in the plate reader. The percentage of growth represents the growth under the indicated conditions, with or without 0.3 mM TA, compared to the growth of WT without TA.

[8] = system: cys4Δ yeast strain; assay: Aggregation level assay in yeast (ProteoStat, flow cytometry); format: cell-based, Saccharomyces cerevisiae; conditions: cys4Δ with 100 mg/L Hcy compared to WT and to mutant without Hcy
Experimental: For each sample, 2×10^6 cells/mL of logarithmic cells were resuspended with ProteoStat dye (Enzo Life Sciences). Cells were incubated for 15 min at room temperature protected from light. Flow cytometry was preformed using Stratedigm S1000EXi and the CellCapTure software (Stratedigm, San Jose, Calif.). Live cells were gated (P1) by forward scatter and side scatter. Fluorescence channels for FITC (530/30) and PE-Cy5 (676/29) were used utilizing a 488 nm laser source. A total of 50,000 events were acquired for each sample. Analyses were performed using the FlowJo software (TreeStar, version 14).

[9] = biological target: T1, β-amyloid1-42 (Homo sapiens, UniProt P05067); assay: In-vitro seeding of β-amyloid1-42 by Hcy assemblies (ThT binding assay); format: biochemical; conditions: 20% v/v pre-formed Hcy assemblies (2, 5, 10 mg/mL stocks), 3 μM β-amyloid1-42 monomers, 37° C.
T1 construct: purchased rPeptide
T1 sequence (P05067 672-713 limits assumed): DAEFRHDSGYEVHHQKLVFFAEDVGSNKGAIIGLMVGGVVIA
Experimental: Hcy was dissolved at 90° C. in PBS followed by gradual cooling of the solution. […] (rPeptide) was dissolved in DMSO to a concentration of 120 μM. The monomeric protein was mixed with pre-formed 20% v/v Hcy assemblies (taken from 10, 5 or 2 mg/mL stock solutions), or with an equivalent volume of PBS as a control, to a final concentration of 3 μM β-amyloid1-42 ThT was added to a final concentration of 20 μM. Aggregation was monitored using Tecan™ Infinite 200 PRO fluorescence plate reader over time at 37° C. Blank measurements of Hcy only (without β-amyloid) were respectively subtracted.

[10] = TEM of metabolite self-assembly; format: physicochemical; conditions: dissolved at 90° C., gradual cooling
Experimental: Hcy was dissolved at 90° C. in PBS at various concentrations followed by gradual cooling of the solution. […] Subsequently, 10 μL samples were placed on 400-mesh copper grids. After 2 min, excess fluids were removed. Samples were viewed using a JEOL 1200EX electron microscope operating at 80 kV.

[11] = ThT binding assay of metabolite self-assembly; format: physicochemical; conditions: emission 480 nm
Experimental: Hcy was dissolved at 90° C. in PBS to a final concentration of 10, 5 and 2 mg/mL and maintained at 90° C. until the beginning of the measurement. Samples containing polyphenols were immediately mixed with the inhibitors. […] As a control, Hcy was diluted with PBS alone to the same final concentrations. […] Next, the solutions were plated in a black 96-well, clear, and flat bottom microplate (Greiner) and self-assembly kinetics were recorded over time at room temperature (uncontrolled gradual cooling of the solutions) with short shaking before each read. […] Following an overnight incubation at room temperature with gentle rotation (uncontrolled gradual cooling of solutions), ThT emission signal at 480 nm (excitation at 450 nm) was measured at room temperature with short shaking before each read and using a Tecan™ Infinite 200 PRO plate reader, gain 90.

[12] = system: WT yeast strain (BY4741); assay: Yeast growth assay, WT strain; format: cell-based, Saccharomyces cerevisiae; conditions: 0.3 mM TA, SD with 13 mg/L cysteine and 100 mg/L Hcy, 27 hours
Experimental: as §1, §2, §3

Structure (SMILES): O=C(O[C@@H]1Cc2c(O)cc(O)cc2O[C@@H]1c1cc(O)c(O)c(O)c1)c1cc(O)c(O)c(O)c1 [EGCG, epigallocatechin gallate]
Inhibition of Hcy fibril formation, ThT fluorescence intensity over time [1]: significant reduction in the ThT fluorescence intensity curves
Structures seen by TEM in mixture of Hcy with polyphenol [2]: no structures were formed
Cell viability, inhibitors alone (MTT) ([3]; SH-SY5Y, 24 hours, EGCG 0.1 mM or TA 0.01 mM without Hcy): did not affect cell viability
Cell viability with inhibitor-containing Hcy solution compared to Hcy alone (MTT) ([3]; SH-SY5Y, 24 hours): significant increase in cell viability

Structure (SMILES): NC(CCS)C(=O)O (centres unmarked) [Hcy, 2-Amino-4-sulfanylbutanoic acid]
Cytotoxicity (MTT cell viability) [3]: dose-dependent cytotoxicity
Cell death (MTT) ([3]; SH-SY5Y, 24-hour treatment with pre-formed Hcy assemblies in cell medium): up to 80%
Cytotoxicity (MTT cell viability) [4]: no significant toxicity
Apoptotic activity (annexin V / PI) [5]: stimulated apoptotic activity in a concentration-dependent manner
Detection of amyloid-like structures in cells (ProteoStat) [6]: amyloid-like structures in treated SH-SY5Y cells
Growth sensitivity to Hcy supplied in the growth medium ([7]; cys4Δ compared to WT, SD media with Hcy at different concentrations): sensitivity to Hcy supplied in the growth medium was observed
Degree of aggregation upon Hcy feeding (ProteoStat flow cytometry) [8]: significantly higher degree of aggregation
Cross-seeding of β-amyloid1-42 aggregation (ThT signal) [9]: induced β-amyloid1-42 aggregation in a concentration-dependent manner
Formation of amyloid-like fibrils (TEM) [10]: formed amyloid-like fibrils
ThT fluorescence of self-assembly [11]: higher metabolite concentrations showing stronger ThT fluorescence

Structure (SMILES): O=C(OC[C@H]1O[C@@H](OC(=O)c2cc(O)c(O)c(OC(=O)c3cc(O)c(O)c(O)c3)c2)[C@H](OC(=O)c2cc(O)c(O)c(OC(=O)c3cc(O)c(O)c(O)c3)c2)[C@@H](OC(=O)c2cc(O)c(O)c(OC(=O)c3cc(O)c(O)c(O)c3)c2)[C@@H]1OC(=O)c1cc(O)c(O)c(OC(=O)c2cc(O)c(O)c(O)c2)c1)c1cc(O)c(O)c(OC(=O)c2cc(O)c(O)c(O)c2)c1 [TA, tannic acid]
Inhibition of Hcy fibril formation, ThT fluorescence intensity over time [1]: significant reduction in the ThT fluorescence intensity curves
Structures seen by TEM in mixture of Hcy with polyphenol [2]: no structures were formed
Cell viability with inhibitor-containing Hcy solution compared to Hcy alone (MTT) ([3]; SH-SY5Y, 24 hours): significant increase in cell viability
Cell growth with TA (percentage of growth, OD600) ([7]; cys4Δ, 0.3 mM TA, SD with 13 mg/L cysteine and 100 mg/L Hcy, 27 hours): significantly improved the cell growth
Cell growth with TA (percentage of growth, OD600) [12]: no effect

Formation of amyloid-like fibrils (TEM) [10]: did not form amyloid-like fibrils
ThT fluorescence of self-assembly [11]: did not show a fluorescence signal
Structure (SMILES): CSCC[C@H](N)C(=O)O [methionine]
Cytotoxicity (MTT cell viability) ([3]; SH-SY5Y, 24-hour treatment, solutions prepared in cell medium): did not show any toxicity
Apoptotic activity (annexin V / PI) ([5]; SH-SY5Y, treated for 24 hours): did not show any apoptotic effect
